From ChEMBL document CHEMBL1125506, “Fluoronaphthyridines as antibacterial agents. 6. Synthesis and structure-activity relationships of new chiral 7-(1-, 3-, 4-, and 6-methyl-2,5-diazabicyclo[2.2.1]heptan-2-yl)naphthyridine analogues of 7-[(1R,4R)-2,5- diazabicyclo[2.2.1]heptan-2-yl]-1-(1,1-dimethylethyl)-6-fluoro-1,4-dihy …” (J Med Chem, 1992)
In brackets after ≈: the same amount, converted by molar mass.

Assays:
Pseudomonas aeruginosa = test: In vitro antibacterial activity against Pseudomonas aeruginosa A9843; type: functional
Bacteroides fragilis = test: In vitro antibacterial activity against Bacteroides fragilis A-22,862; type: functional
Proteus mirabilis = test: In vitro antibacterial activity against Proteus mirabilis A9900; type: functional
Mus musculus [1] = test: In vivo efficacy on systemic infections caused by Staphylococcus aureus A15090 in mice after peroral administration; type: functional; details: po, read-out: PD50
Streptococcus pneumoniae = test: In vitro antibacterial activity against Streptococcus pneumoniae A9585.; type: functional
Serratia marcescens = test: In vitro antibacterial activity against Serratia marcescens A20019; type: functional
Morganella morganii = test: In vitro antibacterial activity against Morganella morganii A15153; type: functional
Mus musculus [2] = test: In vivo efficacy on systemic infections caused by Pseudomonas aeruginosa A9843 in mice after intramuscular administration; type: functional; details: im, read-out: PD50
Mus musculus [3] = test: In vivo efficacy on systemic infections caused by Streptococcus pneumoniae A9585 in mice after peroral administration; type: functional; details: po, read-out: PD50
Enterococcus faecalis = test: In vitro antibacterial activity against Enterococcus faecalis A9809; type: functional
Mus musculus [4] = test: In vivo efficacy on systemic infections caused by Streptococcus pneumoniae A9585 in mice after intramuscular administration; type: functional; details: im, read-out: PD50
[5] = Solubility (water, 22C, pH 7.2); type: physicochemical; details: read-out: S
Mus musculus [6] = test: In vivo efficacy on systemic infections caused by Pseudomonas aeruginosa A9843 after peroarl administration in mice; type: functional; details: read-out: PD50
Mus musculus [7] = test: In vivo efficacy on systemic infections caused by Staphylococcus aureus A15090 in mice after intramuscular administration; type: functional; details: im, read-out: PD50
[8] = Partition coefficient (logD); type: physicochemical; details: octanol/water
Staphylococcus aureus = test: In vitro antibacterial activity against Staphylococcus aureus A9537; type: functional
Klebsiella pneumoniae = test: In vitro antibacterial activity against Klebsiella pneumoniae A9664; type: functional
Enterobacter cloacae = test: In vitro antibacterial activity against Enterobacter cloacae A9656; type: functional
Escherichia coli = test: In vitro antibacterial activity against Escherichia coli A15119; type: functional
[9] = Percent urinary recovery in 24 hr after peroral administration to mice; type: ADME, organism-based; details: mouse, urine, po; read-out: UR
[10] = Peak concentration in blood after peroral administration to mice; type: ADME, organism-based; set-up: route oral; details: mouse, po
[11] = Peak concentration in blood after intravenous administration to mice; type: ADME, organism-based; set-up: route intravenous; details: mouse
Mus musculus [12] = test: In vivo efficacy on systemic infections caused by Escherichia coli A15119 in mice after intramuscular administration; type: functional; details: im, read-out: PD50
Mus musculus [13] = test: In vivo efficacy on systemic infections caused by Escherichia coli A15119 in mice after peroral administration; type: functional; details: po, read-out: PD50
Mus musculus [14] = test: In vivo efficacy on systemic infections caused by Pseudomonas aeruginosa A9843 in mice after peroral administration; type: functional; details: po, read-out: PD50
Mus musculus [15] = test: percent urinary recovery in 24 hr after intravenous administration to mice; type: functional, Urine

Row | SMILES | MIC (Bacteroides fragilis) [mg/L] | MIC (Proteus mirabilis) [mg/L] | ED50 (Mus musculus [1]) [mg/kg] | MIC (Streptococcus pneumoniae) [mg/L] | MIC (Serratia marcescens) [mg/L] | MIC (Morganella morganii) [mg/L] | ED50 (Mus musculus [2]) [mg/kg] | ED50 (Mus musculus [3]) [mg/kg] | MIC (Enterococcus faecalis) [mg/L] | ED50 (Mus musculus [4]) [mg/kg] | ED50 (Mus musculus [7]) [mg/kg] | MIC (Staphylococcus aureus) [mg/L] | MIC (Klebsiella pneumoniae) [mg/L] | also measured
1 | C[C@@H]1N[C@@H]2C[C@H]1N(c1nc3c(cc1F)c(=O)c(C(=O)O)cn3-c1ccc(F)cc1F)C2.Cl | 4 | 0.5 | 1.4 | 1 | 0.25 | 0.5 | 2.4 | > 50 | 1 | > 50 | 1 | 0.06 | 0.13 | MIC (Pseudomonas aeruginosa): 1 mg/L; solubility [5]: 0.015 mg/mL; ED50 (Mus musculus [6]): 3.1 mg/kg; logD [8]: -0.14; MIC (Enterobacter cloacae): 0.13 mg/L; MIC (Escherichia coli): 0.03 mg/L
2 | O=C(O)c1cn(C2CC2)c2cc(N3CCNCC3)c(F)cc2c1=O [CIPROFLOXACIN] | 1 (≈ 3.02 µM) | 0.008 (≈ 0.0241 µM) | 12.5 | 0.25 (≈ 0.754 µM) | 0.03 (≈ 0.0905 µM) | 0.008 (≈ 0.0241 µM) | 1.3 | > 50 | 0.5 (≈ 1.51 µM) | 28.7 | 3.9 | 0.06 (≈ 0.181 µM) | 0.06 (≈ 0.181 µM) | dose excreted at 24 h [9]: 30%; Cmax [10]: 6 µg/mL; Cmax [11]: 22 µg/mL; ED50 (Mus musculus [12]): 0.05 mg/kg; ED50 (Mus musculus [13]): 1.4 mg/kg; ED50 (Mus musculus [14]): 2.6 mg/kg; UR (Mus musculus [15]): 25%
